Legend:
[1] = Stability of hEN101 in human plasma and blood; type: in vitro ADME
Description: Exposure at room temperature to Li-heparin-treated blood caused a decay of hEN101 with a half-life in the order of 30 min.

[2] = tested on: AChE-R; assay: Immunohistochemical staining of AChE-R in rat muscle; type: in vivo; details: healthy and EAMG rats, 24 h after single i.v. injection of 250 μg/Kg
Description: Immunocytochemistry: Muscle sections were deparaffinized with xylene and were re-hydrated in graded ethanol solutions (100%, 90%, 70%) and PBS. Heat-induced antigen retrieval was performed by microwave treatment (850 W for rapid boil following 10 min in reduced intensity) in 500 ml of 0.01M citrate buffer pH 6.0. Slides were cooled to room temperature and rinsed in double distilled water. Non-specific binding was blocked by 4% nominal donkey serum in PBS with 0.3% Triton X-100 and 0.05% Tween 20 (1 hr at room temperature). Biotinylated primary antibody was diluted (1:100 and 1:30 for rabbit anti-AChE-R [Sternfeld et al. (2000) id ibid] and goat anti-nAChR, respectively) in the same buffer and slides were incubated 1 hr at room temperature following overnight incubation at 4° C. Sections were rinsed and incubated with alkaline phosphatase-conjugated secondary antibody, diluted in the same blocking buffer 1 hr at room temperature and then overnight at 4° C. Detection was with the alkaline phosphatase substrate Fast Red (Roche Diagnostics, Mannheim, Germany). Slides were simultaneously transferred to a stop solution (25 mM EDTA, 0.05% Triton X-100, 1 mM levamisole in PBS, pH 7.2), rinsed in PBS and cover-slipped with Immunomount (Shandon). […]

[3] = tested on: EAMG rats; assay: Repeated daily treatment of EAMG rats (5 days and 1 month): survival, body weight, status; type: in vivo, rat
From the text: As shown in Example 5, unlike anti-cholinesterases, rEN101 afforded long-term maintenance of stable CMAP. This further enabled the inventors to test whether the cholinergic imbalance contributes to the physiological deterioration that is characteristic of EAMG. Rats were first treated with rEN101 once a day for 5 days, CMAPs being determined prior to each treatment. Both the efficacy of rEN101 in retrieving normal CMAP and its capacity to reduce the inter-animal variability in CMAP values reached similar levels to those of pyridostigmine (FIGS. 11A and 11B). However, the onset of response to pyridostigmine was more rapid (Table 1), while that observed with rEN101 was longer-lasting. Daily oral or i.v administration of rEN101 stabilized CMAPs over the entire course of treatment (FIG. 11B). In contrast, the effect of pyridostigmine wore off within several hours, causing pronounced fluctuations in muscle status (Table 1 and FIG. 11). Among the animals treated daily with pyridostigmine, 5 out of 6 died within the 5 day experimental course. In contrast, 6 out of 8 animals treated once-a-day with rEN101 via o.g. survived the full 5 day period. This conspicuous difference might reflect the susceptibility of EAMG rats to repeated anesthesia and CMAP measurements. In order to avoid these additional stresses and evaluate the effect of the antisense treatment on EAMG pathophysiology, the inventors subjected groups of moderately sick animals to 1 month of daily oral treatment with minimal interference. […] One way repeated measures ANOVA yielded P<0.05 for all other measures (AS vs. other treatments at 4 weeks). The effect of rEN101 on clinical symptoms was also corroborated by body weight changes. Rats treated with saline and Mestinon treated groups lost 13.5 and 11 g/animal, respectively, whereas animals treated with rEN101 gained, on average, 13 g during the treatment period. Thus, daily rEN101 administration promoted long-term change in the course of EAMG in rats with moderate to severe symptoms, under the same conditions in which untreated or pyridostigmine-treated animals deteriorated.

[4] = tested on: healthy rats; assay: Treadmill running time of healthy rats; type: in vivo, rat; details: 250 μg/Kg
Description: Exercise training on treadmill: To establish a clinical measure of neuromuscular performance in EAMG rats, a treadmill assay was performed. Animals were placed on an electrically powered treadmill [Moran et al. (1996) J Therm Biol 21, 171-181] at 25 m/min (a physical effort of moderate intensity) until visibly fatigued. The amount of time the rats were able to run was recorded before and after anti-sense or Mestinon® treatment.

[5] = tested on: EAMG rats; assay: Electromyography: CMAP ratio under repetitive 3 Hz nerve stimulation in EAMG rats; type: in vivo, rat; details: for CMAP ratio (5th vs. 1st amplitude): average ± SEM

5′-CTGCCACGTTCTCCTGCACC-3′ [hEN101]
Stability, remaining concentration ([1]; 2 h in human plasma with EDTA at room temperature): > 90 % of original concentration
Half-life of decay ([1]; Li-heparin-treated blood at room temperature): ~30 min
Stability, remaining concentration ([1]; after 1 month at −20° C.): > 90 % of original concentration
Stability, remaining concentration ([1]; following three freeze/thawing cycles): > 90 % of original concentration

5′-CTGCGATATTTTCTTGTACC-3′ (chemistry not given here) [rEN101]
AChE-R immunohistochemical staining in muscle [2]: significantly reduced
Animals that survived the full 5 day period ([3]; EAMG rats treated once-a-day via o.g.): 6 out of 8
Survival, clinical status and treadmill performance vs pyridostigmine- and saline-treated animals ([3]; EAMG rats, 1 month daily oral doses (50 μg/Kg)): significant improvement in survival, clinical status and treadmill performance
Body weight gained during the treatment period, average ([3]; EAMG rats, 1 month daily oral treatment): 13 g
Effect on treadmill running of healthy animals [4]: not significantly affected
Duration of effective CMAP correction ([5]; 50 μg/Kg i.v.): 24 h
Duration of CMAP rectification ([5]; 500 μg/Kg i.v.): 72 h
Extent of CMAP rectification ([5]; 500 μg/Kg i.v.): up to 125 % of baseline
Average CMAP ratio in treated animals ([5]; EAMG rats, FIG. 9B inset): 107.4±3.8 % of first depolarization
Duration of restoration of CMAP decline ([5]; doses between 10-500 μg/Kg): up to 72 h
Time to retrieve stable CMAP ratios ([5]; i.v., doses 10-500 μg/Kg): ≤ 1 h
IC50 of saturable CMAP response (dose response curve) ([5]; i.v., up to 5 h following injection (1 and 5 h)): < 0.01 mg/kg
CMAP ratio (5th vs. 1st amplitude) ([5]; intravenous, EAMG rats, 0 h, 50 μg/Kg): 0.87 ± 0.01
CMAP ratio (5th vs. 1st amplitude) ([5]; intravenous, EAMG rats, 1 h, 50 μg/Kg): 1.00 ± 0.01
CMAP ratio (5th vs. 1st amplitude) ([5]; intravenous, EAMG rats, 5 h, 50 μg/Kg): 0.98 ± 0.02
CMAP ratio (5th vs. 1st amplitude) ([5]; intravenous, EAMG rats, 24 h, 50 μg/Kg): 1.00 ± 0.00
Effect of oral administration on CMAP decline ([5]; oral gavage, 50 μg/Kg oligonucleotide, 1000 μg/kg pyridostigmine, CMAP 1, 5, 24 h): as effective as 25 μg/Kg administered i.v.
CMAP ratio (5th vs. 1st amplitude) ([5]; oral, EAMG rats, 0 h, 50 μg/Kg oligonucleotide, 1000 μg/Kg pyridostigmine): 0.84 ± 0.03
CMAP ratio (5th vs. 1st amplitude) ([5]; oral, EAMG rats, 1 h, 50 μg/Kg oligonucleotide, 1000 μg/Kg pyridostigmine): 0.97 ± 0.02
CMAP ratio (5th vs. 1st amplitude) ([5]; oral, EAMG rats, 5 h, 50 μg/Kg oligonucleotide, 1000 μg/Kg pyridostigmine): 0.97 ± 0.03
CMAP ratio (5th vs. 1st amplitude) ([5]; oral, EAMG rats, 24 h, 50 μg/Kg oligonucleotide, 1000 μg/Kg pyridostigmine): 1.01 ± 0.01
CMAP ratio 24 h following single oral administration ([5]; single oral dose, rEN101 50 μg/kg, pyridostigmine 1000 μg/kg): no decline was detected
